Assay results as given in US20230399358A1, “IMMUNOGLOBULIN PURIFICATION PEPTIDES AND THEIR USE” (North Carolina State University, priority 2019, published 2023).

Tests used:
human IgG = test: Dynamic binding capacity by breakthrough assay; conditions: 20 mg/mL IgG in PBS
Experimental: Measurements of dynamic binding capacity (DBC) were performed on a Waters 2695 unit. MWRGWQ (SEQ ID NO:2)—Workbeads and WQRHGIC (SEQ ID NO:30)—Workbeads resins were wet packed in a 0.1 mL microbore column and equilibrated in PBS pH 7.4. A solution of human IgG at 20 mg/mL in PBS was owed through the column at 0.05 mL/min and 0.02 mL/min, corresponding to residence times (RT) of 2 and 5 min, respectively. The bound IgG was eluted with glycine pH 2.5. The absorbance of the effluent was monitored by UV/Vis spectrophotometry at 280 nm throughout the breakthrough study. The DBC was calculated at 10% of the breakthrough curve.
Breakthrough curves (FIG. 5 panels A-D) were obtained by flowing a 20 mg/mL solution of IgG in PBS through the […] and MWRGWQC (SEQ ID NO:31)-WB adsorbents at two different flow rates (0.05 and 0.02 mL/min) corresponding to two different residence times (2 and 5 minutes).

[1] = system: human polyclonal IgG in CHO cell culture fluid; test: Chromatographic purification of IgG from CHO cell culture fluid on WorkBeads resin, SDS-PAGE densitometry; conditions: Elution 1 (pH 4), 5 min residence time, FIG. 7B
Experimental: Purification of IgG from CHO Cell culture fluids using MWRGWQC (SEQ ID NO:31)- and WQRHGIC (SEQ ID NO:30)—Workbeads: A volume of 0.1 mL of resin was packed in a PEEK microbore column, installed on a Waters 2695 unit, and equilibrated with PBS, pH 7.4. All chromatographic buffers were filtered through a compatible 0.2 μm filter prior to use. A volume of 100 μL of solution of human polyclonal IgG at 1 mg/mL in a CHO cell culture fluid at 0.205 mg/mL CHO HCPs was injected in the column at 0.02 mL/min (RT: 5 minutes). Following injection, the resin was washed with PBS at 0.2 mL/min and, subsequently, with 100 mM NaCl in PBS at 0.2 mL/min. Elution was then conducted with […] pH 4. An acidic cleaning step was conducted in 0.1 M glycine pH 2.5 to remove any proteins still bound. The absorbance of the effluent was monitored by UV/Vis spectrophotometry at 280 nm. Fractions were collected and adjusted to neutral pH. Total protein concentration was measured by BCA assay. All collected fractions were also analyzed via SDS PAGE under reducing conditions. The gel was stained by silver staining, and the overall IgG purity in the eluted fractions was determined by densitometric analysis using ImageJ software. Finally, the feed and eluted fractions were analyzed using a CHO-specific ELISA kit to determine the log removal value (LRV) of HCPs.
The high purity of the recovered IgG using WQRHGI (SEQ ID NO:1), as calculated by densitometric analysis (100%) was confirmed by the HCP LRV value of 2.7, thus indicating WQRHGI (SEQ ID NO:1) has purification abilities similar to Protein A. This is a remarkable result. […] The collected chromatographic fractions were analyzed by SDS-PAGE (FIG. 7B, silver stained to highlight diluted CHO HCPs). The % values of IgG in the fractions (expressed as a ratio of IgG concentration over total protein (e.g., IgG+CHO HCPs)) were calculated by densitometric analysis of the lanes in the SDS gel and were as follows: Control (C), 0.00%; Load (L) 59.77%; Flowthrough (FT), 0.00%; Elution 1 (El1), 100.00%; Elution 2 (El2), 0.00%; IgG 93.30%. […]

[2] = system: human polyclonal IgG in CHO-S cell culture fluid; test: Static purification of IgG from CHO cell culture supernatant on peptide-Toyopearl resins, SDS-PAGE densitometry; conditions: Gel B, lane E (pH 4)

DBC at 10% breakthrough (human IgG; residence time 2 min): 33.6 mg IgG/mL resin | DBC at 10% breakthrough (human IgG; residence time 5 min): 43.8 mg IgG/mL resin
Substance: WQRHGI
% IgG over total protein [1]: 100% | % Purity (IgG over total eluted proteins) [2]: 100%
